Source: patent publication US12264134B2 (Merck Sharp & Dohme LLC, priority 2018, dated 2025)
pIC50: −log10 of the molar value. Where a name gives a salt, the structure may show the parent alone.

Tests used:
IDO1 [1] = molecular target: T1, IDO1 (Homo sapiens, UniProt P14902); assay: IDO1 Human Whole blood Assay; format: cell-based; parameters: Human whole blood was drawn in sodium heparin coated tubes from healthy internal donors; from tissue; host or cells: human whole blood from healthy donors, stimulated with LPS and IFNγ; conditions: LPS and IFNγ stimulated, 18 h, read-out: Human Whole Blood Potency, IC50
Outline: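 LC/MS/MS of kynurenine, normalized to spiked isotope-labeled standard (3 μM final), served as the readout. Beforehand, fresh human blood with compound (15 min preincubation) was stimulated overnight (18 h, 37 °C) with 100 ng/mL LPS/IFNγ. IC50 was obtained by four-parameter curve fitting.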

IDO1 [2] = molecular target: T1, IDO1; assay: IDO1 Cellular Assay in HeLa Cells Stimulated with IFNγ; format: cell-based; conditions: read-out: HeLa Cell Potency, IC50

T1 sequence (P14902 whole entry): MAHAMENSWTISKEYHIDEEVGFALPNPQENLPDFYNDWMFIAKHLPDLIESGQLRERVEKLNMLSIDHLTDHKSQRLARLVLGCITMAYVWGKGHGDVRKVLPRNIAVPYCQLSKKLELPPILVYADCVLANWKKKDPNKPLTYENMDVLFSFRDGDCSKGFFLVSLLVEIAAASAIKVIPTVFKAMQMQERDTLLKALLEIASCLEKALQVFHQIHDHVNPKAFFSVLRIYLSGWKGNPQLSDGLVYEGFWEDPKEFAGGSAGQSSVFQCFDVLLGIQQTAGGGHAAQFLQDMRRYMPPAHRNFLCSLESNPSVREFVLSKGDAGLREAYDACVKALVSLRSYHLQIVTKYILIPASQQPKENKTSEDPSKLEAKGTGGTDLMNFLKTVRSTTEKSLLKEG

| SMILES | pIC50 (IDO1 [1]) | pIC50 (IDO1 [2]) |
| --- | --- | --- |
| Cc1c(F)ccc(N2CCN(C(=O)Cn3nc(C(=O)N4CC[C@H](O)[C@H](F)C4)c4c3C[C@H]3C[C@@H]43)C3(CC3)C2)c1C [Example 317, 1-[7-(4-fluoro-2,3-dimethylphenyl)-4,7-diazaspiro[2.5]octan-4-yl]-2-{(3bR,4aR)-3-[(3R,4S)-3-fluoro-4-hydroxypiperidine-1-carbonyl]-3b,4,4a,5-tetrahydro-1H-cyclopropa[3,4]cyclopenta[1,2-c]pyrazol-1-yl}ethan-1-one] | 6.69 | 8.78 |
| Cc1cccc(N2CCN(C(=O)Cn3nc(C(=O)N4C[C@@H](C)O[C@@H](C)C4)c4c3[C@H]3C[C@H]3C4)CC2)c1C [Example 294, 2-{(4aS,5aS)-3-[(2R,6S)-2,6-dimethylmorpholine-4-carbonyl]-4,4a,5,5a-tetahydro-1H-cyclopropa[4,5]cyclopenta[1,2-c]pyrazol-1-yl}-1-[4-(2,3-dimethylphenyl)piperazin-1-yl]ethan-1-one] | 5.84 | 8.25 |
| Cc1cccc(N2CCN(C(=O)Cn3nc(C(=O)N4CCC(O)CC4)c4c3C[C@H]3C[C@@H]43)C3(CC3)C2)c1C [Example 357, 1-(7-(2,3-dimethylphenyl)-4,7-diazaspiro[2.5]octan-4-yl)-2-((3bR,4aR)-3-(4-hydroxypiperidine-1-carbonyl)-3b,4,4a,5-tetrahydro-1H-cyclopropa[3,4]cyclopenta[1,2-c]pyrazol-1-yl)ethanone] | 5.73 | 9.05 |
| Cc1cccc(N2CCN(C(=O)Cn3nc(C(=O)N4CCCC(CO)C4)c4c3CCC4)CC2)c1C (stereo not drawn) [Example 147, 1-[4-(2,3-dimethylphenyl)piperazin-1-yl]-2-{3-[3-(hydroxymethyl)piperidine-1-carbonyl]-5,6-dihydrocyclopenta[c]pyrazol-1(4H)-yl}ethan-1-one] | 6.22 | 8.55 |
| Cc1cccc(N2CCN(C(=O)Cn3nc(C(=O)N4CC[C@H](O)[C@@H](C)C4)c4c3CCC4)CC2)c1C [Example 109, 1-[4-(2,3-dimethylphenyl)piperazin-1-yl]-2-{3-[(3S,4S)-4-hydroxy-3-methylpiperidine-1-carbonyl]-5,6-dihydrocyclopenta[c]pyrazol-1(4H)-yl}ethan-1-one] | 6.40 | 8.73 |
| Cc1cccc(N2CCN(C(=O)Cn3nc(C(=O)N4CCC(O)CC4)c4c3CCCC4)CC2)c1Cl [Example 450, 1-(4-(2-chloro-3-methylphenyl)piperazin-1-yl)-2-(3-(4-hydroxypiperidine-1-carbonyl)-4,5,6,7-tetrahydro-1H-indazol-1-yl)ethanone] | 6.82 | 8.74 |
| Cc1cccc(N2CCN(C(=O)Cn3nc(C(=O)N4CCN(CC(F)F)CC4)c4c3CCC4)CC2)c1C [Example 157, 2-{3-[4-(2,2-difluoroethyl)piperazine-1-carbonyl]-5,6-dihydrocyclopenta[c]pyrazol-1(4H)-yl}-1-[4-(2,3-dimethylphenyl)piperazin-1-yl]ethan-1-one] | 6.71 | 8.48 |

The remaining lines, values ahead:

| pIC50 (IDO1 [1]) | pIC50 (IDO1 [2]) | SMILES |
| --- | --- | --- |
| 6.56 | 7.88 | Cc1cccc(N2CCN(C(=O)Cn3nc(C(=O)N4CC[C@H](N)[C@@H](F)C4)c4c3CCC4)CC2)c1C [Example 203, [(3S,4S)-1-[1-[2-[4-(2,3-dimethylphenyl)piperazin-1-yl]-2-oxo-ethyl]-5,6-dihydro-4H-cyclopenta[c]pyrazole-3-carbonyl]-3-fluoro-4-piperidyl]ammonium; formate] |
| 5.64 | 8.37 | Cc1cccc(N2CCN(C(=O)Cn3nc(C(=O)N4CCC(O)CC4)c4c3CCC4)CC2)c1C [Example 87, 1-[4-(2,3-dimethylphenyl)piperazin-1-yl]-2-[3-(4-hydroxypiperidine-1-carbonyl)-5,6-dihydrocyclopenta[c]pyrazol-1(4H)-yl]ethan-1-one] |
| 6.79 | 8.95 | Cc1cccc(N2CCN(C(=O)Cn3nc(C(=O)N4C[C@@H](C)O[C@@H](C)C4)c4c3C[C@H]3C[C@@H]43)CC2)c1C [Example 283, 2-{(3bR,4aR)-3-[(2R,6S)-2,6-dimethylmorpholine-4-carbonyl]-3b,4,4a,5-tetrahydro-1H-cyclopropa[3,4]cyclopenta[1,2-c]pyrazol-1-yl}-1-[4-(2,3-dimethylphenyl)piperazine-1-yl]ethan-1-one] |
| 6.90 | 8.48 | Cc1cccc(N2CCN(C(=O)Cn3nc(C(=O)N4CCC5(CC4)COCC5O)c4c3CCC4)CC2)c1C (stereo not drawn) [Example 181, 1-[4-(2,3-dimethylphenyl)piperazin-1-yl]-2-[3-(4-hydroxy-2-oxo-8-azaspiro[4.5]decane-8-carbonyl)-5,6-dihydrocyclopenta[c]pyrazol-1(4H)-yl]ethan-1-one] |
| 6.72 | 8.10 | Cc1cccc(N2CCN(C(=O)Cn3nc(C(=O)N4CCN(C)[C@H](C)C4)c4c3CCC4)CC2)c1C [Example 167, 1-[4-(2,3-dimethylphenyl)piperazin-1-yl]-2-{3-[(3R)-3,4-dimethylpiperazine-1-carbonyl]-5,6-dihydrocyclopenta[c]pyrazol-1(4H)-yl}ethan-1-one] |
| 5.74 | 8.06 | Cc1cccc(N2CCN(C(=O)Cn3nc(C(=O)N4CCCC4)c4c3CCC4)CC2)c1C [Example 1, 1-(4-(2,3-dimethylphenyl)piperazin-1-yl)-2-(3-(pyrrolidine-1-carbonyl)-5,6-dihydrocyclopenta[c]pyrazol-1(4H)-yl)ethanone] |
| 6.29 | 8.83 | Cc1c(F)ccc(N2CCN(C(=O)Cn3nc(C(=O)N4CCC(OCCO)CC4)c4c3C[C@H]3C[C@@H]43)C3(CC3)C2)c1C [Example 321, 1-[7-(4-fluoro-2,3-dimethylphenyl)-4,7-diazaspiro[2.5]octan-4-yl]-2-{(3bR,4aR)-3-[4-(2-hydroxyethoxy)piperidine-1-carbonyl]-3b,4,4a,5-tetrahydro-1H-cyclopropa[3,4]cyclopenta[1,2-c]pyrazol-1-yl}ethan-1-one] |
| 6.26 | 8.31 | Cc1cccc(N2CCN(C(=O)Cn3nc(C(=O)N4CCCC4)c4c3CCCC4)CC2)c1C [Example 2, 1-[4-(2,3-dimethylphenyl)piperazin-4-ium-1-yl]-2-[3-(pyrrolidine-1-carbonyl)-4,5,6,7-tetrahydroindazol-1-yl]ethanone] |
| 6.64 | 8.12 | Cc1cccc(N2CCN(C(=O)Cn3nc(C(=O)N4CCC(N)CC4)c4c3C[C@H]3C[C@@H]43)CC2)c1C [Example 479, 2-((3bR,4aR)-3-(4-aminopiperidine-1-carbonyl)-3b,4,4a,5-tetrahydro-1H-cyclopropa [3,4]cyclopenta[1,2-c]pyrazol-1-yl)-1-(4-(2,3-dimethylphenyl)piperazin-1-yl)ethanone] |
| 6.69 | 8.42 | Cc1c(Cl)cccc1N1CCN(C(=O)Cn2nc(C(=O)N3CCC(OCCO)CC3)c3c2CCC(F)C3)CC1 (single isomer, unassigned) [Example 373, 1-(4-(3-chloro-2-methylphenyl)piperazin-1-yl)-2-(5-fluoro-3-(4-(2-hydroxyethoxy)piperidine-1-carbonyl)-4,5,6,7-tetrahydro-1H-indazol-1-yl)ethan-1-one] |
| 7.51 | 8.58 | Cc1cccc(N2CCN(C(=O)Cn3nc(C(=O)N4CCO[C@@H](CO)C4)c4c3CCCC4)CC2)c1C [Example 470, (R)-1-(4-(2,3-dimethylphenyl)piperazin-1-yl)-2-(3-(2-(hydroxymethyl)morpholine-4-carbonyl)-4,5,6,7-tetrahydro-1H-indazol-1-yl)ethanone] |
